Experimental data reported in patent publication US20050086708A1, “Animal models of retinal tumorigenesis” (priority 2003, published 2005).

Tests used:
in vivo = conditions: for Kp: rat, in vivo, iv
Description: Pharmacology. Two-week-old rats were treated with TPT (Hycamtin; GlaxoSmithKline, Research Triangle Park, N.C.) at a maximum tolerated dose (MTD) of 2 mg/kg body weight, CBP (Paraplatin; Bristol-Myers Squibb, New York, N.Y.) at an MTD of 70 mg/kg, and VCR (Mayne Pharma (USA Inc., Paramus, N.J.) at an MTD of 0.5 mg/kg; all agents were administered via tail vein injection. TPT was measured by HPLC UV absorption as described (Thompson, J. et. al., id). Atomic absorption spectrometry of ultrafiltered and nonfiltered samples was used to measure platinum levels (Simpson, A. E. et al., “Transscleral diffusion of carboplatin: an in vitro and in vivo study”, Arch Ophthalmol 120: 1069-74 (2002)). Liquid scintillation was used to measure levels of [H^3]-VCR (70-90 Ci/mmol; PerkinElmer, Wellesley, Mass.). Mice received TPT, CBP, and VCR at a dose and schedule similar to that used to treat children with retinoblastoma (Schouten-Van Meeteren, A. Y. et al., “Overview: chemotherapy for retinoblastoma: an expanding area of clinical research”, Med Pediatr Oncol 38: 428-38 (2002)) or other brain tumors.
To measure retinal and vitreal penetration of TPT, CBP, and VCR, we injected each drug intravenously into 2-wk-old rats; this age corresponded to the stage of treatment in our xenograft model. Drug levels were measured in the vitreous, retina, and plasma at 3 min, 30 min, 1.5 h, 4 h, and 6 h after injection.

retinoblastoma [1] = conditions: subconjunctival administration; cited from earlier work
Y79 cells = experiment: Response of cultured retinoblastoma cells to drugs, proportion of viable cells (Y79); assay type: cell-based, human; conditions: 8 hours exposure, assayed 3 days later
Excerpt: (§1) Cell Culture. Y79 and Weri1 cells were obtained from the American Type Culture Collection (Manassas, Va.) and maintained in culture in RPMI medium with 10% FCS (McFall, R. C. et al., “Characterization of a new continuous cell line derived from a human retinoblastoma”, Cancer Res 37: 1003-10 (1977)). Stable lines expressing GFP were generated by transfecting pTET-1 (M.A.D. unpublished) into Y79 and Weril cells by using TransFast (Promega, Madison, Wis.); clones were isolated in the presence of hygromycin. To measure live cells, 0.5 ug/ml calcein was used; to measure dead cells, 4 uM ethidium bromide was used.
(§2) Viable Cell Calculation Following Drug Treatment. […] The proportion of cells that had initiated apoptosis (T) was determined by a TUNEL assay.
(§3) Response of Cultured Retinoblastoma Cells to Chemotherapeutic Drugs. […] For all of the cell culture studies, retinoblastoma cells were exposed to drugs at a cell density corresponding to their optimal proliferation and cell survival. The cell number, proportion of metabolically active cells, and proportion of apoptotic cells were combined to generate the proportion of viable cells (see Materials and Methods for calculations). The proportion of dividing cells was estimated by labeling the cultures with BrdU for 1 hour. Initially, cells were exposed to TPT, CBP, or VCR for 8 hours at concentrations ranging from 1 nM to 200 uM, and the cultures were assayed 3 days later.

[2] = system: Y79 and Weril retinoblastoma cells; experiment: Combination, time course, FACS and DNA-content studies in cultured retinoblastoma cells; assay type: cell-based, human
Excerpt: as §1
Immunolabeling and TUNEL and BrdU Assays. Y79 and Weri1 retinoblastoma cells were immunolabeled as described previously for dissociated mouse retinae (Dyer, M. A. & Cepko, C. L., “p27Kip1 and p57Kip2 regulate proliferation in distinct retinal progenitor cell population”, J. of Neurosci 21: 4259-71 (2001); Zhu, C. C. et al., “Six2-mediated auto repression and eye development requires its interaction with members of the Groucho-related family of co-repressors”, Development 129: 2835-49 (2002); Dyer, M. A. & Cepko, C. L., “p57(Kip2) regulates progenitor cell proliferationand amacrine intemeuron development in the mouse retina”, Development 127: 3593-605 (2000)). For in vivo studies, BrdU (100 mg/kg body weight) was administered via tail vein injection. BrdU and TUNEL assays were carried out as described previously (Dyer, M. A. et. al., id, Zhu, C. C. et. al., id; Dyer, M. A. et. al., id). Detailed protocols are available at http://www.stjude.org/dyer.
Fluorescent-Activated Cell Sorting. DNA content was analyzed by dissociating tumors with trypsin (Dyer, M. A. et. al., id; Zhu, C. C. et. al., id; Dyer, M. A. et. al., id) and sorting cells by fluorescent-activated cell sorting (FACS). Cells were washed with PBS, and resuspended in a solution containing 0.05 mg/ml propidium iodide, 0.1% sodium citrate and, 0.1% Triton-X100. Samples were then treated with RNase, filtered through a 40-um nylon mesh, and analyzed on a FACScan (Beckton-Dickson, Franklin Lakes, N.J.).
as §2, §3
Following treatment, RNA was isolated and microarray hybridizations were carried out using the human H1 cDNA microarray (see Materials and Methods).
In these preliminary studies, we included an 8-h drug exposure, because that is the maximum period of drug exposure for children receiving chemotherapy. However, the time that tumor cells are exposed in situ is probably considerably shorter, so we performed a time course experiment to determine the minimum duration of exposure required for the full effect on retinoblastoma cell survival and proliferation.

[3] = system: Y79 retinoblastoma xenograft; experiment: Orthotopic retinoblastoma xenograft in eyes of newborn rats; assay type: in vivo, rat
Description: For some experiments, the retinoblastoma cells were labeled with a GFP transgene to unambiguously establish tumor boundaries.
To establish a baseline prior to chemotherapy treatment in our retinoblastoma xenograft model, we analyzed cell number, survival, proliferation, apoptosis, and gene expression 2 weeks after engraftment. One hour before analysis, the rats received an injection of BrdU to label the cells in the S-phase of the cell cycle, a measure of the fraction of dividing cells. The engrafted cells were microdissected from the normal tissue and dissociated; the total cell number was then scored. Calcein and ethidium bromide were used to measure metabolically active cells and dead cells, respectively. […] The fraction of dividing cells was estimated by staining with an anti-BrdU antibody and scoring the fraction of immunopositive cells. […] To estimate the proportion of cells that had initiated apoptosis, we performed a TUNEL assay.
After one course of treatment, the transplanted retinoblastoma cells were analyzed for viability and proliferation as described above.

Weril cells = experiment: Response of cultured retinoblastoma cells to drugs, proportion of viable cells (Weri1); assay type: cell-based, human; conditions: 8 hours exposure, assayed 3 days later
Excerpt: as §1, §2, §3

Y79 and Weril cells = experiment: Microarray gene expression response of retinoblastoma cells to drugs; assay type: cell-based, human; conditions: microarray analysis after treatment
Description: Microarray Hybridization. The H1 human cDNA microarray was printed at the Hartwell Center for Bioinformatics & Biotechnology at St. Jude Children's Research Hospital. The gene list is available at http://www.ncbi.nlm.nih.gov/geo/ (GEO Accession: GLP345). RNA was isolated from approximately 20×10^6 cells in triplicate for each treatment using Trizol (Invitrogen, Carlsbad, Calif.), and 10 ug total RNA underwent one round of linear amplification using the RiboAmp System (Arcturus Applied Genomics, Carlsbad, Calif.) to yield 100 ug of RNA. The RNA was indirectly labeled using aa-dUTP and conjugated with Cy3 and Cy5. Data were then filtered (see http://www.ncbi.nlm.nih.gov/geo/; GLP345 for details), and cluster analysis was performed.
Following treatment, RNA was isolated and microarray hybridizations were carried out using the human H1 cDNA microarray (see Materials and Methods). […] Using the LD50 of TPT, we tested the combination of TPT and CBP and that of TPT and VCR. […] This effect was additive.
Microarray analysis provided even more information about the response of retinoblastoma cells to chemotherapeutic drugs. […] VCR treatment also altered the expression of a different cohort of genes in comparison to TPT treatment. […]

retinoblastoma [4] = conditions: low-dose, frequent versus infrequent, high-dose administration; cited from earlier work
[5] = system: primary human retinoblastoma tumors; experiment: Enlarged nuclei in tumors removed from patients following VCR treatment; assay type: in vivo; conditions: human tumors treated with VCR; control primary tumors 4%±1%
Excerpt: We were surprised that VCR was not effective at halting retinoblastoma growth in the orthotopic xenograft model because VCR is often combined with other chemotherapeutic agents in the treatment of retinoblastoma in children. It was possible that there was a minor effect of VCR treatment that was masked in our system by the active proliferation and expansion of the xenograft. One of the hallmarks of VCR exposure is a nucleus with twice the genomic DNA content, because VCR blocks cytokinesis without halting cell cycle progression. To test if there was any VCR-mediated block of mitosis, we scored the proportion of large cells with twice the genomic DNA content in cultured cells, xenografts, and tumors removed from patients following VCR treatment. […] The proportion of enlarged nuclei in xenografts and primary human tumors following VCR treatment was similar to control xenografts (3%±2%) and primary tumors (4%±1%), respectively.

[6] = 2-wk-old rats, intravenous, 3 min to 6 h

For `N.N.O=C([O-])C1(C(=O)[O-])CCC1.[Pt+2]` [CBP, carboplatin], the AUC retina/plasma ratio (in vivo; [6]) is given as 0.03, the AUC vitreous/plasma ratio (in vivo; [6]) is given as 0.59 and the “effect on tumor size” value (retinoblastoma [1]) is given as “effective at reducing tumor size”. For the same compound, the LD50 (Y79 cells) was 4000 nM, the “cell cycle arrest phase” value [2] was “arrested in either the G1 or G2 phase” and the “exposure sufficient to achieve the maximum reduction in cell survival and proliferation” value ([2]; time course experiment) was 15 min. The cell number/eye ([3]; 2-wk-old rats, after one course of treatment, untreated 2.4±0.6×10^6) was 0.79±0.29×10^6 cell number/eye, the LD50 (Weril cells; Weri1 cells) was 5000 nM and the p53 pathway activation (Y79 and Weril cells) was “not activated”.

`CC[C@@]1(O)C(=O)OCc2c1cc1n(c2=O)Cc2cc3c(CN(C)C)c(O)ccc3nc2-1` [TPT, topotecan] showed a Kp (in vivo; AUC retina/plasma ratio) of 0.7, a Kp (in vivo; AUC vitreous/plasma ratio) of 0.38 and an LD50 (Y79 cells) of 30 nM. The “effect on tumor burden” value (retinoblastoma [4]) was “more effectively reduced the tumor burden”, the “cell cycle arrest phase” value [2] was “G2 arrest” and the “proportion of cells arrested in G2 phase (FACS)” value ([2]; exposed for 10 min) was 36%. For the same compound, the “proportion of cells arrested in G2 phase (FACS)” value ([2]; exposed for 8 h) was 39%, the “exposure sufficient to achieve the maximum reduction in cell survival and proliferation” value ([2]; time course experiment) was 15 min and the LD50 (Weril cells; Weril cells) was 19 nM. The p53 pathway activation (Y79 and Weril cells) was “activated”.

With `CC[C@]1(O)C[C@H]2CN(CCc3c([nH]c4ccccc34)[C@@](C(=O)OC)(c3cc4c(cc3OC)N(C=O)[C@H]3[C@@](O)(C(=O)OC)[C@H](OC(C)=O)[C@]5(CC)C=CCN6CC[C@]43[C@@H]65)C2)C1` [VCR, vincristine] the Kp (in vivo; AUC retina/plasma ratio) was 1, the Kp (in vivo; AUC vitreous/plasma ratio) was 1.1 and the “proportion of enlarged nuclei (cell cycle progression without cytokinesis)” value [5] was 5%±1.5%. For the same compound, the LD50 (Y79 cells) was 5 nM, the “exposure time required to kill retinoblastoma cells in culture” value [2] was 4 h and the “cells with twice their normal DNA content” value ([2]; cultured cells, 5 nM for 8 h) was “Approximately 98%”. The “exposure time of maximum decrease in viability” value ([2]; time course experiment) was 4 h, the “effect on retinoblastoma cell survival” value ([3]; short-term assay, one course of treatment) was “little effect” and the “proportion of enlarged nuclei (cell cycle progression without cytokinesis)” value ([3]; xenografts treated with VCR, control xenografts 3%±2%) was 2%±1%. For the same compound, the LD50 (Weril cells; Weril cells) was 3 nM.
